Experiments:
[1] = Concentration of BRAF/MEK inhibitors in patient serum/plasma by LC-MS/MS; type: in vivo, human; conditions: encorafenib/binimetinib given day 1-3 then discontinued, dabrafenib/trametinib from day 4
Method: (§1) Determination of BRAF/MEK inhibitors concentration in plasma and CSF of patients by liquid chromatography–tandem mass spectrometry
Sample preparation of plasma and CSF samples was different. Twenty microliters of plasma were diluted with 180 µL of water and mixed with 200 µL formic acid (1%). An automated solid phase extraction with an ASPEC XL (Gilson, Middleton, USA) and Oasis HLB (Waters, Milford, USA) cartridges were used. The cartridges were conditioned, loaded, washed and finally eluted with 1 mL methanol. The SPE extracts were evaporated to dryness and reconstituted with 200 µL. For quantification, 10-point external calibration curves in blank plasma at the range from 1.95 to 1000 µg/L for all four substances were freshly prepared and measured in parallel.
(§2) Native CSF samples were used with a standard addition method for quantification. A volume of 20 µl was always injected into the Ultimate 3000 HPLC system from Thermo Scientific system coupled to an API4000 tandem mass spectrometer (ABSciex, Darmstadt, Germany). The BRAF and MEK inhibitors encorafenib, binimetinib, dabrafenib and trametinib were separated by reversed phase chromatography with a Synergi 4 μm Hydro-RP 80 A, 150 × 3 mm column (Phenomenex, Torrance, USA).
(§3) The temperature of column was constantly at 40 °C. Determination of the analytes was performed using the multiple reaction monitoring mode with nitrogen as collision gas. For positive ionization, a capillary voltage of 4000 V (positive ion mode) was used. Quantification was performed by the peak area method, and a weighted (1/x) regression of first order yielded the concentrations.
(§4) Moreover, comprehensive analyses of the patients’ CSF and plasma using liquid chromatography-tandem mass spectrometry were performed to determine the concentrations of various MAPKi two, four, and five days after regimen modification, i.e. five, seven, and eight days following initiation of the targeted therapy. There was a clear accumulation of all MAPKi in the patient’s plasma (Table 2). The concentrations determined reside within the therapeutic range of the maximum and minimum plasma concentrations published (Table 2).

[2] = Tolerability of oral regimen in the patient; type: in vivo, human; conditions: oral hard capsules and tablets; quantity and size
Method: Based on the promising results of the mutational and IHC analyses, a targeted therapy with the BRAF inhibitor, encorafenib and the MEK inhibitor, binimetinib was initiated. The dosage mirrored that of MM with 450 mg of encorafenib (i.e. 6 × 75 mg) administrated daily, and 45 mg of binimetinib (i.e. 3 × 15 mg), administrated twice daily. […] Consequently, after three days, the regimen was modified.

[3] = set-up: method as in earlier work; conditions: serum of patients; ref EMA product information sheet, Delord et al., 2017 [29], Sullivan et al., 2020 [30]; cited from earlier work
[4] = Concentration of BRAF/MEK inhibitors in patient CSF by LC-MS/MS; type: in vivo, human; conditions: for CSF concentration: CSF via EVD; for Kp: human, CSF/serum, oral
Method: as §1, §2, §3, §4

[5] = day 5 after treatment initiation
[6] = day 7 after treatment initiation
[7] = day 8 after treatment initiation

Row | SMILES | Serum concentration [1, 5] [ng/mL] | Serum concentration [1, 6] [ng/mL] | Serum concentration [1, 7] [ng/mL] | Tolerability by the patient [2] | C max (maximum plasma concentration) [3] [ng/mL] | C min (minimum plasma concentration) [3] [ng/mL] | CSF concentration [4, 5] [ng/mL] | CSF concentration [4, 6] [ng/mL] | CSF concentration [4, 7] [ng/mL] | Kp [4, 5] | Kp [4, 6] | Kp [4, 7]
1 | Cn1cnc2c(F)c(Nc3ccc(Br)cc3F)c(C(=O)NOCCO)cc21 [Binimetinib, binimetinib] | 96.5 | 19.1 | 13.8 | poorly tolerated | 654 | 51.4 | 10.3 | 5.3 | 5.0 | 0.107 | 0.277 | 0.362
2 | CC(C)(C)c1nc(-c2cccc(NS(=O)(=O)c3c(F)cccc3F)c2F)c(-c2ccnc(N)n2)s1 [Dabrafenib, dabrafenib] | 322.9 | 188.0 | 94.6 | better tolerated | 1478 | 26 | 5.4 | 6.1 | 1.5 | 0.017 | 0.032 | 0.016
3 | COC(=O)N[C@@H](C)CNc1nccc(-c2cn(C(C)C)nc2-c2cc(Cl)cc(NS(C)(=O)=O)c2F)n1 [Encorafenib, encorafenib] | 13.5 | 5.7 | 6.1 | poorly tolerated | 3800 | 13.9 | 2.4 | 1.1 | 1.1 | 0.178 | 0.193 | 0.18
4 | CC(=O)Nc1cccc(-n2c(=O)n(C3CC3)c(=O)c3c(Nc4ccc(I)cc4F)n(C)c(=O)c(C)c32)c1 [Trametinib, trametinib] | 8.8 | 7.7 | 9.2 | better tolerated | 22.2 | 12.1 | 0.0 | 0.3 | 0.4 | 0 | 0.039 | 0.043

Source: PMC11302837, “Efficacy of BRAF/MEK-inhibitor therapy for epithelioid glioblastoma with a novel BRAFV600 mutation” (Acta Neuropathologica Communications, 2024)
